From patent US12539292B2, “BRM targeting compounds and associated methods of use” (Arvinas Operations, Inc., priority 2018, dated 2026)
Like-named read-outs stand apart in the source and are kept apart here. One block for each molecule: values may come before it.

Biological target: T1, BRM (Homo sapiens, UniProt P51531)
T1 construct: In-Cell Western Screen of BRM Degradation in SW1573 Cells; endogenous in cells; host or cells: SW1573
Test: In-cell Western screen of BRM degradation in SW1573 cells (Dmax and DC50)
Format: cell-based
Outline: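 SW1573 cells were treated with compound overnight (18-20 h; final DMSO 0.1%), then fixed in 4% PFA, permeabilized with Triton X-100 and blocked. BRM was detected by in-cell Western using 800 nm anti-rabbit and 680 nm anti-mouse secondaries, and Dmax and DC50 were derived from the LI-COR Odyssey signal.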

[1] = BRM degradation, SW1573 cells, read-out: DC50
[2] = BRM degradation, SW1573 cells, when tested at the top concentration of between 0.3 and 10 μM, read-out: Dmax (%) (% degraded)
[3] = BRM degradation, SW1573 cells, tested at the top concentration of between 0.3 and 10 μM, read-out: Dmax (%) (% degraded)
[4] = BRM degradation, SW1573 cells, read-out: Dmax (% degraded)
[5] = BRM degradation, SW1573 cells, Table 2D, read-out: *DC50
[6] = degradation of BRM, read-out: BRM DC50

T1 sequence (P51531 whole entry): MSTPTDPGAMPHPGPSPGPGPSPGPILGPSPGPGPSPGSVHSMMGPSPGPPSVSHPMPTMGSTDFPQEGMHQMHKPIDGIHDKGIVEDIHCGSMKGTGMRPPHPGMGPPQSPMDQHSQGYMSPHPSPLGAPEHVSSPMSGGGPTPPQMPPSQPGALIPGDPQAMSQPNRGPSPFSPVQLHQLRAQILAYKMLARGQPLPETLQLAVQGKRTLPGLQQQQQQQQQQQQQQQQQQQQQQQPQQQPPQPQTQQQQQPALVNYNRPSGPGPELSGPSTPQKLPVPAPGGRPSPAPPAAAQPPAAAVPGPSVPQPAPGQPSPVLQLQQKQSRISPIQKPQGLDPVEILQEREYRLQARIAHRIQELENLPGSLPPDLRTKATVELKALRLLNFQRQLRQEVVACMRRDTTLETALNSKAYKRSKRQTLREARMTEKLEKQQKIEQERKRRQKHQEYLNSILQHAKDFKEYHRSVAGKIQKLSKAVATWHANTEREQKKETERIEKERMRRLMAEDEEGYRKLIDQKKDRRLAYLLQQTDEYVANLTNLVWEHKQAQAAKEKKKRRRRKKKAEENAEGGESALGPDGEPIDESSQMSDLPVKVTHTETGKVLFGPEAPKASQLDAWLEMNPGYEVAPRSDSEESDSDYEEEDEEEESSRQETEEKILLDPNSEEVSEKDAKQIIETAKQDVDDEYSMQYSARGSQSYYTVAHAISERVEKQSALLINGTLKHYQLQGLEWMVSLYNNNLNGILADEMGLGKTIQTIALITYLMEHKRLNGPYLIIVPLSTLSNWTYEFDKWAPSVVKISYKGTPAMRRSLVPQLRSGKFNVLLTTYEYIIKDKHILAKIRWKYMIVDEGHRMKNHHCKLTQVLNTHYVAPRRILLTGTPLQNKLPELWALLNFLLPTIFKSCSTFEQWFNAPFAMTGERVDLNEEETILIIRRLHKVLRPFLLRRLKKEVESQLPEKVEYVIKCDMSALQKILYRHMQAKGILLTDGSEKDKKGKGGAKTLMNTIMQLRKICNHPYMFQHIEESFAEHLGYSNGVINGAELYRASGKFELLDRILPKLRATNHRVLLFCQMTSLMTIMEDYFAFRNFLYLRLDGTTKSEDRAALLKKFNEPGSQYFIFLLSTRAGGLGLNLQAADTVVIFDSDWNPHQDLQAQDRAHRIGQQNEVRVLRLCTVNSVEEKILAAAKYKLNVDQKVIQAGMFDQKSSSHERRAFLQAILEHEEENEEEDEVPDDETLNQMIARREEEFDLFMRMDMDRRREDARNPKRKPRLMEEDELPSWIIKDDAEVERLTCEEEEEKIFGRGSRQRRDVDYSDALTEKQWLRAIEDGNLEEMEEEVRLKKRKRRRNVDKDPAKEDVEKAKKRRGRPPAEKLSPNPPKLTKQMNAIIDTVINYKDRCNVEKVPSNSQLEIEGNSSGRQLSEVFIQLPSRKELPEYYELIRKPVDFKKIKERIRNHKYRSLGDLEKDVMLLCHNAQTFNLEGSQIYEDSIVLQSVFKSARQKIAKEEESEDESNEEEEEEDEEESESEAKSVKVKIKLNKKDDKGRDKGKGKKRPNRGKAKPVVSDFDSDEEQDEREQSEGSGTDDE

SMILES: Cc1ncsc1-c1ccc([C@H](C)NC(=O)[C@@H]2C[C@@H](O)CN2C(=O)[C@@H](c2cc(OCCN3CCN(CCOc4cc(N5C6CCC5CN(c5cc(-c7ccccc7O)nnc5N)C6)ccn4)[C@H](C)C3)no2)C(C)C)cc1 [compound 139, (2S,4R)-1-((2R)-2-(3-(2-((3R)-4-(2-((4-(3-(3-amino-6-(2-hydroxyphenyl)pyridazin-4-yl)-3,8-diazabicyclo[3.2.1]octan-8-yl)pyridin-2-yl)oxy)ethyl)-3-methylpiperazin-1-yl)ethoxy)isoxazol-5-yl)-3-methylbutanoyl)-4-hydroxy-N-((S)-1-(4-(4-methylthiazol-5-yl)phenyl)ethyl)pyrrolidine-2-carboxamide]
DC50 [1]: < 2.5 nM | Dmax [2]: > 75%

SMILES: CC[C@H](NC(=O)[C@@H]1C[C@@H](O)CN1C(=O)[C@H](c1cc(OCCN2CCC(O[C@H]3C[C@H](Oc4cc(N5C6CCC5CN(c5cc(-c7ccccc7O)nnc5N)C6)ccn4)C3)CC2)no1)C(C)C)c1ccc(-c2scnc2C)cc1 [compound 350, (2S,4R)-1-((2S)-2-(3-(2-(4-((1r,3S)-3-((4-(3-(3-amino-6-(2-hydroxyphenyl)pyridazin-4-yl)-3,8-diazabicyclo[3.2.1]octan-8-yl)pyridin-2-yl)oxy)cyclobutoxy)piperidin-1-yl)ethoxy)isoxazol-5-yl)-3-methylbutanoyl)-4-hydroxy-N-((S)-1-(4-(4-methylthiazol-5-yl)phenyl)propyl)pyrrolidine-2-carboxamide]
DC50 [1]: > 30 nM

SMILES: CC(C)[C@@H](C(=O)N1C[C@H](O)C[C@H]1C(=O)N[C@@H](C)c1ccc(-c2ccnn2C)cc1)c1cc(OCCN2CCN(CCOc3cc(N4C5CCC4CN(c4cc(-c6ccccc6O)nnc4N)C5)ccn3)CC2)no1 [compound 264, (2S,4R)-1-((2R)-2-(3-(2-(4-(2-((4-(3-(3-amino-6-(2-hydroxyphenyl)pyridazin-4-yl)-3,8-diazabicyclo[3.2.1]octan-8-yl)pyridin-2-yl)oxy)ethyl)piperazin-1-yl)ethoxy)isoxazol-5-yl)-3-methylbutanoyl)-4-hydroxy-N-((S)-1-(4-(1-methyl-1H-pyrazol-5-yl)phenyl)ethyl)pyrrolidine-2-carboxamide]
DC50 [1]: < 2.5 nM | Dmax [3]: > 75%

DC50 [1]: > 30 nM
SMILES: Cc1ncsc1-c1ccc([C@H](COCC2CCOCC2)NC(=O)[C@@H]2C[C@@H](O)CN2C(=O)[C@H](c2cc(OCCN3CCN(CCOc4cc(N5C6CCC5CN(c5cc(-c7ccccc7O)nnc5N)C6)ccn4)CC3)no2)C(C)C)cc1 [compound 262, (2S,4R)-1-((2S)-2-(3-(2-(4-(2-((4-(3-(3-amino-6-(2-hydroxyphenyl)pyridazin-4-yl)-3,8-diazabicyclo[3.2.1]octan-8-yl)pyridin-2-yl)oxy)ethyl)piperazin-1-yl)ethoxy)isoxazol-5-yl)-3-methylbutanoyl)-4-hydroxy-N-((R)-1-(4-(4-methylthiazol-5-yl)phenyl)-2-((tetrahydro-2H-pyran-4-yl)methoxy)ethyl)pyrrolidine-2-carboxamide]

SMILES: Cc1ncsc1-c1ccc([C@H](C)NC(=O)[C@@H]2C[C@@H](O)CN2C(=O)[C@@H](c2cc(N3CCC(CN4CCC(O[C@H]5C[C@H](C#CC(C)N6CCOC7(CCN(c8cc(-c9ccccc9O)nnc8N)CC7)C6)C5)CC4)CC3)no2)C(C)C)cc1 (stereo partly drawn) [compound 707, (2S,4R)-1-((2R)-2-(3-(4-((4-((1r,3r)-3-(3-(9-(3-amino-6-(2-hydroxyphenyl)pyridazin-4-yl)-1-oxa-4,9-diazaspiro[5.5]undecan-4-yl)but-1-yn-1-yl)cyclobutoxy)piperidin-1-yl)methyl)piperidin-1-yl)isoxazol-5-yl)-3-methylbutanoyl)-4-hydroxy-N-((S)-1-(4-(4-methylthiazol-5-yl)phenyl)ethyl)pyrrolidine-2-carboxamide]
DC50 [1]: < 2.5 nM | Dmax [4]: > 75%

SMILES: COC[C@@H](NC(=O)[C@@H]1C[C@@H](O)CN1C(=O)[C@@H](c1cc(N2CCC(CN3CCC(O[C@H]4C[C@H](Oc5cc(N6C7CCC6CN(c6cc(-c8ccccc8O)nnc6N)C7)ccn5)C4)CC3)CC2)no1)C(C)C)c1ccc(-c2scnc2C)cc1 [compound 667, (2S,4R)-1-((2R)-2-(3-(4-((4-((1r,3r)-3-((4-(3-(3-amino-6-(2-hydroxyphenyl)pyridazin-4-yl)-3,8-diazabicyclo[3.2.1]octan-8-yl)pyridin-2-yl)oxy)cyclobutoxy)piperidin-1-yl)methyl)piperidin-1-yl)isoxazol-5-yl)-3-methylbutanoyl)-4-hydroxy-N-((S)-2-methoxy-1-(4-(4-methylthiazol-5-yl)phenyl)ethyl)pyrrolidine-2-carboxamide]
DC50 [1]: 10 to 30 nM | Dmax [4]: > 75%

Dmax (BRM degradation, SW1573 cells, Table 2D, read-out: **Dmax (%) (% degraded)): > 75% | DC50 [5]: < 2.5 nM
SMILES: Cc1ncsc1-c1ccc([C@H](C)NC(=O)[C@@H]2C[C@@H](O)CN2C(=O)[C@@H](c2cc(N3CCC(OC4CCN([C@H]5C[C@H](CN6CCOC7(CCN(c8cc(-c9ccccc9O)nnc8N)CC7)C6)C5)CC4)CC3)no2)C(C)C)cc1 [compound 616, (2S,4R)-1-((R)-2-(3-(4-((1-((1r,3R)-3-((9-(3-amino-6-(2-hydroxyphenyl)pyridazin-4-yl)-1-oxa-4,9-diazaspiro[5.5]undecan-4-yl)methyl)cyclobutyl)piperidin-4-yl)oxy)piperidin-1-yl)isoxazol-5-yl)-3-methylbutanoyl)-4-hydroxy-N-((S)-1-(4-(4-methylthiazol-5-yl)phenyl)ethyl)pyrrolidine-2-carboxamide]

SMILES: Cc1ncsc1-c1ccc([C@@H](C)NC(=O)[C@@H]2C[C@@H](O)CN2C(=O)[C@@H](c2cc(OCCN3CCC(O[C@H]4C[C@H](Oc5cc(N6C7CCC6CN(c6cc(-c8ccccc8O)nnc6N)C7)ccn5)C4)CC3)no2)C(C)C)nn1 [compound 443, (2S,4R)-1-((2R)-2-(3-(2-(4-((1r,3R)-3-((4-(3-(3-amino-6-(2-hydroxyphenyl)pyridazin-4-yl)-3,8-diazabicyclo[3.2.1]octan-8-yl)pyridin-2-yl)oxy)cyclobutoxy)piperidin-1-yl)ethoxy)isoxazol-5-yl)-3-methylbutanoyl)-4-hydroxy-N-((R)-1-(6-(4-methylthiazol-5-yl)pyridazin-3-yl)ethyl)pyrrolidine-2-carboxamide]
DC50 [6]: > 30 nM

DC50 [1]: > 30 nM | Dmax [3]: > 75%
SMILES: Cc1ncsc1-c1ccc([C@H](C)NC(=O)[C@@H]2C[C@@H](O)CN2C(=O)[C@H](c2cc(OCCN3CCN(CCCCN4CCOC5(CCN(c6cc(-c7ccccc7O)nnc6N)CC5)C4)CC3)no2)C(C)C)cc1 [compound 205, (2S,4R)-1-((S)-2-(3-(2-(4-(4-(9-(3-amino-6-(2-hydroxyphenyl)pyridazin-4-yl)-1-oxa-4,9-diazaspiro[5.5]undecan-4-yl)butyl)piperazin-1-yl)ethoxy)isoxazol-5-yl)-3-methylbutanoyl)-4-hydroxy-N-((S)-1-(4-(4-methylthiazol-5-yl)phenyl)ethyl)pyrrolidine-2-carboxamide]

SMILES: Cc1ncsc1-c1ccc([C@H](C)NC(=O)[C@@H]2C[C@@H](O)CN2C(=O)[C@@H](c2cc(OCCN3CCC(O[C@H]4C[C@H](C#CCn5cc(-c6cc(-c7ccccc7O)nnc6N)cn5)C4)CC3)no2)C(C)C)cc1 [compound 238, (2S,4R)-1-((R)-2-(3-(2-(4-((1r,3R)-3-(3-(4-(3-amino-6-(2-hydroxyphenyl)pyridazin-4-yl)-1H-pyrazol-1-yl)prop-1-yn-1-yl)cyclobutoxy)piperidin-1-yl)ethoxy)isoxazol-5-yl)-3-methylbutanoyl)-4-hydroxy-N-((S)-1-(4-(4-methylthiazol-5-yl)phenyl)ethyl)pyrrolidine-2-carboxamide]
DC50 [1]: < 2.5 nM | Dmax [3]: > 75%

SMILES: Cc1ncsc1-c1ncc([C@H](C)NC(=O)[C@@H]2C[C@@H](O)CN2C(=O)[C@H](c2cc(OCCN3CCC(O[C@H]4C[C@H](Oc5cc(N6C7CCC6CN(c6cc(-c8ccccc8O)nnc6N)C7)ccn5)C4)CC3)no2)C(C)C)cn1 [compound 429, (2S,4R)-1-((2S)-2-(3-(2-(4-((1r,3S)-3-((4-(3-(3-amino-6-(2-hydroxyphenyl)pyridazin-4-yl)-3,8-diazabicyclo[3.2.1]octan-8-yl)pyridin-2-yl)oxy)cyclobutoxy)piperidin-1-yl)ethoxy)isoxazol-5-yl)-3-methylbutanoyl)-4-hydroxy-N-((S)-1-(2-(4-methylthiazol-5-yl)pyrimidin-5-yl)ethyl)pyrrolidine-2-carboxamide]
DC50 [6]: > 30 nM

SMILES: Cc1ncsc1-c1ccc(CNC(=O)[C@@H]2C[C@@H](O)CN2C(=O)[C@@H](c2cc(OCCN3CCN(CCOc4cc(N5C6CCC5CN(c5cc(-c7ccccc7O)nnc5N)C6)ccn4)CC3)no2)C(C)C)cc1 [compound 42, (2S,4R)-1-[(2R)-2-[3-[2-(4-[2-[(4-[3-[3-amino-6-(2-hydroxyphenyl)pyridazin-4-yl]-3,8-diazabicyclo[3.2.1]octan-8-yl]pyridin-2-yl)oxy]ethyl]piperazin-1-yl)ethoxy]-1,2-oxazol-5-yl]-3-methylbutanoyl]-4-hydroxy-N-[[4-(4-methyl-1,3-thiazol-5-yl)phenyl]methyl]pyrrolidine-2-carboxamide]
DC50 [1]: < 2.5 nM | Dmax [2]: > 75%

SMILES: Cc1nccn1-c1ccc([C@H](C)NC(=O)[C@@H]2C[C@@H](O)CN2C(=O)[C@H](c2cc(N3CCC(O[C@H]4C[C@H](Oc5cc(N6C7CCC6CN(c6cc(-c8ccccc8O)nnc6N)C7)ccn5)C4)CC3)no2)C(C)C)cc1 [compound 600, (2S,4R)-1-((2S)-2-(3-(4-((1r,3S)-3-((4-(3-(3-amino-6-(2-hydroxyphenyl)pyridazin-4-yl)-3,8-diazabicyclo[3.2.1]octan-8-yl)pyridin-2-yl)oxy)cyclobutoxy)piperidin-1-yl)isoxazol-5-yl)-3-methylbutanoyl)-4-hydroxy-N-((S)-1-(4-(2-methyl-1H-imidazol-1-yl)phenyl)ethyl)pyrrolidine-2-carboxamide]
DC50 [5]: > 30 nM
